Results as given in PubChem BioAssay AID2060496 (Molecular Pharmacology Branch, DTP, NCI, 2025).
One block for each compound: values may come before it.

Tested on: 276233-004-R-J1-PDC complex spheroid viability
Assay: Anticancer human tumor 276233-004-R-J1-PDC patient-derived colon adenocarcinoma cell line growth inhibition [GQUAD]
Conditions: for IC50: curve of first compound; for viability, T/C: stronger effect = lower value
Method in brief: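 Tumor cells were grown as complex spheroids with HUVEC endothelial cells and mesenchymal stem cells as stroma. G-quadruplex stabilizers were combined with targeted agents over half-log dilutions from near the clinical Cmax, or from 10 microM.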

[1] = second compound 0.0316 µM, first compound 0.0316 µM
[2] = second compound 0.0316 µM, first compound 0.1 µM
[3] = second compound 0.0316 µM, first compound 0.316 µM
[4] = second compound 0.0316 µM, first compound 1 µM
[5] = second compound 0.0316 µM, first compound 3.16 µM
[6] = second compound 0.0316 µM, first compound 10 µM
[7] = second compound 0.1 µM, first compound 0.0316 µM
[8] = second compound 0.1 µM, first compound 0.1 µM
[9] = second compound 0.1 µM, first compound 0.316 µM
[10] = second compound 0.1 µM, first compound 1 µM
[11] = second compound 0.1 µM, first compound 3.16 µM
[12] = second compound 0.1 µM, first compound 10 µM
[13] = second compound 0.316 µM, first compound 0.0316 µM
[14] = second compound 0.316 µM, first compound 0.1 µM
[15] = second compound 0.316 µM, first compound 0.316 µM
[16] = second compound 0.316 µM, first compound 1 µM
[17] = second compound 0.316 µM, first compound 3.16 µM
[18] = second compound 0.316 µM, first compound 10 µM
[19] = second compound 1 µM, first compound 0.0316 µM
[20] = second compound 1 µM, first compound 0.1 µM
[21] = second compound 1 µM, first compound 0.316 µM
[22] = second compound 1 µM, first compound 1 µM
[23] = second compound 1 µM, first compound 3.16 µM
[24] = second compound 1 µM, first compound 10 µM
[25] = second compound 3.16 µM, first compound 0.0316 µM
[26] = second compound 3.16 µM, first compound 0.1 µM
[27] = second compound 3.16 µM, first compound 0.316 µM
[28] = second compound 3.16 µM, first compound 1 µM
[29] = second compound 3.16 µM, first compound 3.16 µM
[30] = second compound 3.16 µM, first compound 10 µM
[31] = second compound 10 µM, first compound 0.0316 µM
[32] = second compound 10 µM, first compound 0.1 µM
[33] = second compound 10 µM, first compound 0.316 µM
[34] = second compound 10 µM, first compound 1 µM
[35] = second compound 10 µM, first compound 3.16 µM
[36] = second compound 10 µM, first compound 10 µM
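Also: spheroids exposed to drugs for seven days.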
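For viability, T/C in this document: 100% = DMSO vehicle control viability.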

SMILES: C=CC(=O)N1CCN(c2nc(=O)n(-c3c(C)ccnc3C(C)C)c3nc(-c4c(O)cccc4F)c(F)cc23)C(C)C1 (stereo not drawn) + Cc1[nH]c2ccc(F)cc2c1-c1nc2c3cccnc3c3ncccc3c2[nH]1
IC50 (second compound 0.0316 µM): > 10000 nM
IC50 (second compound 0.1 µM): > 10000 nM
IC50 (second compound 0.316 µM): > 10000 nM
IC50 (second compound 1 µM): > 10000 nM
IC50 (second compound 3.16 µM): > 10000 nM
IC50 (second compound 10 µM): < 31.6 nM
viability, T/C [1]: 106%
viability, T/C [2]: 95.5%
viability, T/C [3]: 85.4%
viability, T/C [4]: 90%
viability, T/C [5]: 95.2%
viability, T/C [6]: 88.5%
viability, T/C [7]: 102%
viability, T/C [8]: 91.9%
viability, T/C [9]: 103%
viability, T/C [10]: 108%
viability, T/C [11]: 81.4%
viability, T/C [12]: 93%
viability, T/C [13]: 75.5%
viability, T/C [14]: 94.9%
viability, T/C [15]: 74.5%
viability, T/C [16]: 83.4%
viability, T/C [17]: 87.4%
viability, T/C [18]: 84.4%
viability, T/C [19]: 81.4%
viability, T/C [20]: 90.4%
viability, T/C [21]: 78.4%
viability, T/C [22]: 73.4%
viability, T/C [23]: 84.9%
viability, T/C [24]: 80.9%
viability, T/C [25]: 70.7%
viability, T/C [26]: 50.6%
viability, T/C [27]: 49.4%
viability, T/C [28]: 52.3%
viability, T/C [29]: 68.6%
viability, T/C [30]: 52.2%
viability, T/C [31]: 39%
viability, T/C [32]: 38.7%
viability, T/C [33]: 61%
viability, T/C [34]: 53.1%
viability, T/C [35]: 56%
viability, T/C [36]: 51%

IC50 (second compound 0.0316 µM): > 10000 nM
IC50 (second compound 0.1 µM): > 10000 nM
IC50 (second compound 0.316 µM): > 10000 nM
IC50 (second compound 1 µM): 7140 nM
IC50 (second compound 3.16 µM): 1550 nM
IC50 (second compound 10 µM): 1430 nM
SMILES: C#Cc1c(F)ccc2cc(O)cc(-c3ncc4c(N5CC6CCC(C5)N6)nc(OCC56CCCN5CC(F)C6)nc4c3F)c12 (stereo not drawn) + Cc1cnc(CNC(=O)c2c(=O)c3ccc(N4CCCN(C)CC4)nc3n3c2sc2ccccc23)cn1
viability, T/C [1]: 115%
viability, T/C [2]: 86.6%
viability, T/C [3]: 101%
viability, T/C [4]: 77.5%
viability, T/C [5]: 83%
viability, T/C [6]: 57.8%
viability, T/C [7]: 95.2%
viability, T/C [8]: 77.7%
viability, T/C [9]: 75.3%
viability, T/C [10]: 75%
viability, T/C [11]: 70.7%
viability, T/C [12]: 60.5%
viability, T/C [13]: 84.1%
viability, T/C [14]: 73%
viability, T/C [15]: 85.7%
viability, T/C [16]: 80.8%
viability, T/C [17]: 69.5%
viability, T/C [18]: 59.6%
viability, T/C [19]: 84.2%
viability, T/C [20]: 71.4%
viability, T/C [21]: 75.5%
viability, T/C [22]: 73%
viability, T/C [23]: 62.8%
viability, T/C [24]: 44.4%
viability, T/C [25]: 65.2%
viability, T/C [26]: 76.2%
viability, T/C [27]: 66.9%
viability, T/C [28]: 53.8%
viability, T/C [29]: 44.5%
viability, T/C [30]: 41%
viability, T/C [31]: 64.1%
viability, T/C [32]: 73.5%
viability, T/C [33]: 67.7%
viability, T/C [34]: 45.8%
viability, T/C [35]: 43.2%
viability, T/C [36]: 5.43%

IC50 (second compound 0.0316 µM): 456 nM
IC50 (second compound 0.1 µM): 284 nM
IC50 (second compound 0.316 µM): 281 nM
IC50 (second compound 1 µM): 195 nM
IC50 (second compound 3.16 µM): 146 nM
IC50 (second compound 10 µM): 112 nM
SMILES: O=C(NO)c1cnc(N2CCN(S(=O)(=O)c3ccc4ccccc4c3)CC2)nc1 + Cc1cnc(CNC(=O)c2c(=O)c3ccc(N4CCCN(C)CC4)nc3n3c2sc2ccccc23)cn1
viability, T/C [1]: 102%
viability, T/C [2]: 86.2%
viability, T/C [3]: 69%
viability, T/C [4]: 10.2%
viability, T/C [5]: 5.35%
viability, T/C [6]: 4.15%
viability, T/C [7]: 93.9%
viability, T/C [8]: 94.6%
viability, T/C [9]: 44.4%
viability, T/C [10]: 13.8%
viability, T/C [11]: 5.07%
viability, T/C [12]: 3.5%
viability, T/C [13]: 84.6%
viability, T/C [14]: 85.2%
viability, T/C [15]: 46%
viability, T/C [16]: 6.38%
viability, T/C [17]: 5.3%
viability, T/C [18]: 5.47%
viability, T/C [19]: 67.8%
viability, T/C [20]: 86%
viability, T/C [21]: 30.5%
viability, T/C [22]: 6.13%
viability, T/C [23]: 4.71%
viability, T/C [24]: 4.58%
viability, T/C [25]: 72.2%
viability, T/C [26]: 63.9%
viability, T/C [27]: 21.5%
viability, T/C [28]: 5.71%
viability, T/C [29]: 5.15%
viability, T/C [30]: 5.15%
viability, T/C [31]: 71.6%
viability, T/C [32]: 54.2%
viability, T/C [33]: 11.4%
viability, T/C [34]: 5.41%
viability, T/C [35]: 4.71%
viability, T/C [36]: 3.76%

IC50 (second compound 0.0316 µM): > 10000 nM
IC50 (second compound 0.1 µM): > 10000 nM
IC50 (second compound 0.316 µM): > 10000 nM
IC50 (second compound 1 µM): > 10000 nM
IC50 (second compound 3.16 µM): > 10000 nM
IC50 (second compound 10 µM): > 10000 nM
SMILES: CCCS(=O)(=O)Nc1ccc(F)c(C(=O)c2c[nH]c3ncc(-c4ccc(Cl)cc4)cc23)c1F + Cc1cnc(CNC(=O)c2c(=O)c3ccc(N4CCCN(C)CC4)nc3n3c2sc2ccccc23)cn1
viability, T/C [1]: 82.2%
viability, T/C [2]: 93.7%
viability, T/C [3]: 117%
viability, T/C [4]: 105%
viability, T/C [5]: 112%
viability, T/C [6]: 75.7%
viability, T/C [7]: 92%
viability, T/C [8]: 87.3%
viability, T/C [9]: 96.4%
viability, T/C [10]: 105%
viability, T/C [11]: 99.5%
viability, T/C [12]: 82.9%
viability, T/C [13]: 80.8%
viability, T/C [14]: 99.1%
viability, T/C [15]: 101%
viability, T/C [16]: 100%
viability, T/C [17]: 101%
viability, T/C [18]: 79.9%
viability, T/C [19]: 89.3%
viability, T/C [20]: 81.8%
viability, T/C [21]: 97.7%
viability, T/C [22]: 79.2%
viability, T/C [23]: 95%
viability, T/C [24]: 74.3%
viability, T/C [25]: 94.2%
viability, T/C [26]: 76.4%
viability, T/C [27]: 81.9%
viability, T/C [28]: 80.2%
viability, T/C [29]: 71.4%
viability, T/C [30]: 62.2%
viability, T/C [31]: 67.4%
viability, T/C [32]: 70%
viability, T/C [33]: 64.3%
viability, T/C [34]: 69.7%
viability, T/C [35]: 77.1%
viability, T/C [36]: 50.5%
